According to patent US9980928B2, “Hydroxy aliphatic substituted phenyl aminoalkyl ether derivatives” (PROUS INSTITUTE FOR BIOMEDICAL RESEARCH, S.A., priority 2012, dated 2018):
Counter-ions that a name gives are not always drawn. Like-named read-outs stand apart in the source and are kept apart here.

Legend:
uptake of norepinephrine = uptake of norepinephrine (Homo sapiens, UniProt P23975); test: Uptake inhibition of norepinephrine, cellular assay; assay type: cell-based
Experimental: (§1) The effect of the compounds of the present invention as inhibitors of the uptake of norepinephrine and serotonin in cellular assays at concentrations that range from […] to 1 nM is determined following the methods described in Galli, A. et al. J Exp Biol 1995, 198(Pt. 10): 2197-212 and Gu, H. et al. J Biol Chem. 1994, 269(10):7124-30.

uptake of serotonin = uptake of serotonin (Homo sapiens, UniProt P31645); test: Uptake inhibition of serotonin, cellular assay; assay type: cell-based
Chain of uptake of serotonin (P31645 whole entry): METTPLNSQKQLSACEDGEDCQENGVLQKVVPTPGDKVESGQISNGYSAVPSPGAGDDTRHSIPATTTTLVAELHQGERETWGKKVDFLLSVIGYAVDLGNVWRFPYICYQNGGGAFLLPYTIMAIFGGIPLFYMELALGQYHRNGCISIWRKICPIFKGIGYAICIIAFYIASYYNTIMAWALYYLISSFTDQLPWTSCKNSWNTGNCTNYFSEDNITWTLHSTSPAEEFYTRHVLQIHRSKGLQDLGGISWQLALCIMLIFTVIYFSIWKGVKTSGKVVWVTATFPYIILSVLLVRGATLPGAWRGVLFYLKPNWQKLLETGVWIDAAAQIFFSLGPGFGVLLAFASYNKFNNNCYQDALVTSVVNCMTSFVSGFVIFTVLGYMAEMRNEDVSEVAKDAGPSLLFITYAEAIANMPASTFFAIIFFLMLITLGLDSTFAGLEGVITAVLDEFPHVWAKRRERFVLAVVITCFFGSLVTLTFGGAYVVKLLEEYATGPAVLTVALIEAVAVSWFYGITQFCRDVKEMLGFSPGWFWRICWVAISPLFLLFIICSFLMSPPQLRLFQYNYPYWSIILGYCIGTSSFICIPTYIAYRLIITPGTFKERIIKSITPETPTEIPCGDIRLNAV
Experimental: as §1

serotonin transporter = target: T1, serotonin transporter (Homo sapiens, UniProt P31645); test: Serotonin transporter binding radioligand inhibition ([3H]-imipramine); conditions: read-out: serotonin binding inhibition
T1 construct: expressed in transfected cells; host or cells: CHO cells
T1 sequence (P31645 whole entry): as above
Excerpt: The serotonin transporter removes serotonin from the synaptic deft. The serotonin transporter terminates the effects of […], enabling its reuse by the presynaptic neuron.

[1] = target: T2, norepinephrine (NE) transporter (Homo sapiens, UniProt P23975); test: Norepinephrine transporter binding radioligand inhibition ([3H]-nisoxetine); conditions: concentration 10 μM
T2 construct: expressed in transfected cells; host or cells: CHO cells
T2 sequence (P23975 whole entry): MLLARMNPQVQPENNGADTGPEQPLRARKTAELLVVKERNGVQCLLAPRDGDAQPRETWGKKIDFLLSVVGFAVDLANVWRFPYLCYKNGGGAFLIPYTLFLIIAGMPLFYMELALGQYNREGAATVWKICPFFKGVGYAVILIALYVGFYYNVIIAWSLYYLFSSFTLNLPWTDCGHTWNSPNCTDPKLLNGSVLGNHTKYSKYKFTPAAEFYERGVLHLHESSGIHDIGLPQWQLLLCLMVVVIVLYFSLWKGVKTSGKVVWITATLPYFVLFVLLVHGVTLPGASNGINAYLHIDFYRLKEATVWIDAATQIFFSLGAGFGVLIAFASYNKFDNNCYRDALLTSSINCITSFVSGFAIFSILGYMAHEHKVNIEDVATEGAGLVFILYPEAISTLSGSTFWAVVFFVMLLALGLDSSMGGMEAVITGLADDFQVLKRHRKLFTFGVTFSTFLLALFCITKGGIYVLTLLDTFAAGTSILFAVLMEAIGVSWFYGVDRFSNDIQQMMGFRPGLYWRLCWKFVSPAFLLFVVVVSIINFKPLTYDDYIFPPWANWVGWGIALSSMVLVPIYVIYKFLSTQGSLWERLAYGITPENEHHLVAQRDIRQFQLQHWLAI
Experimental: The norepinephrine (NE) transporter removes NE from the synaptic cleft. The NE transporter terminates the effects of […], enabling its reuse by the presynaptic neuron. The in vitro binding of the compounds of the invention to the NE transporter and the percent inhibition of control-specific binding ([^3H]-nisoxetine in human recombinant CHO cells) is determined following the method described in Pacholczyk et al., (Nature 1991, 350(6316): 350-4.

mice = test: Novel object recognition test (acute); assay type: in vivo; conditions: 30 mg/kg i.p., same experimental conditions
Excerpt: The novel object recognition task is used to evaluate cognition, particularly memory recognition, in rodent models of CNS disorders. This test is based on the spontaneous tendency of rodents to spend more time exploring a novel object than a familiar one. The choice to explore the novel object reflects the use of learning and memory recognition. The novel object recognition test provides a measure of activity in a novel environment allowing tests for emotional reactivity and also for novel object recognition, a cognitive domain that depends on hippocampal functional integrity. Animals were habituated to the presence of two identical objects (LEGO® pieces) during a single session of 5 minutes (training) and sniffing (exploration of an object was defined as pointing the nose to the object at a distance of <1 cm and/or touching it with the nose). Mice were injected with saline or with the compound to be tested and returned to their home cages. At 24 hours the animals were introduced in the same open field again with the same two items (familiarization), and again exploration in each of them for 5 minutes was registered. One hour later, the mice were retested in the open field for 3 minutes, but this time with one of the “familiar” objects replaced by a new one (test). To analyze cognitive performance, a discrimination index was calculated as the difference in time exploring the novel and familiar object, expressed as the ratio of the total time spent exploring both objects, which made it possible to adjust for any differences in total exploration time. This test is useful for assessing impaired cognitive ability in transgenic strains of mice and evaluating novel chemical entities for their effect on cognition (Zhang, R. J Alzheimers Dis 2012, 31(4): 801-12). […] Neuroplasticity 2007, 26496).

[2] = read-out: Norepinephrine reuptake inhibition (IC50 μM)
[3] = read-out: Serotonin reuptake inhibition (IC50 μM)
[4] = Norepinephrine reuptake inhibition (IC50 μM)
[5] = Serotonin reuptake inhibition (IC50 μM)

Chain of uptake of norepinephrine (P23975 whole entry): as above

SMILES	IC50 (uptake of norepinephrine; [2]) [µM]	IC50 (uptake of serotonin; [3]) [µM]	inhibition at 10 µM (serotonin transporter; concentration 10 μM) [%]	inhibition at 10 µM [1] [%]	IC50 (uptake of norepinephrine; [4]) [µM]	IC50 (uptake of serotonin; [5]) [µM]	inhibition at 10 µM (serotonin transporter) [%]	cognitive improvement (mice)
CNCCC(Oc1ccc(CCO)cc1)c1ccccc1 (single isomer, unassigned) [Example 6, 2-[4-[3-(Methylamino)-1-phenylpropoxy]phenyl]ethanol ferulic acid salt]	1.6 to 2.9	2.5 to 4.8	–	–	–	–	–	–
CNCCC(Oc1ccc(CCO)cc1)c1ccccc1 (single isomer, unassigned) [Example 7, 2-[4-[3-(Methylamino)-1-phenylpropoxy]phenyl]ethanol caffeic acid salt]	1.6 to 2.9	2.5 to 4.8	68 to 82	–	–	–	–	–
CNCCC(Oc1ccc(CCO)cc1)c1ccccc1 [Example 5, 2-[4-[3-(Methylamino)-1-phenylpropoxy]phenyl]ethanol L-ascorbic acid salt]	–	–	–	65 to 90	1.6 to 2.9	2.5 to 4.8	68 to 82	–
CNCCC(Oc1ccc(CCO)cc1)c1ccccc1 (stereo not shown) [Example 8, 2-[4-[3-(Methylamino)-1-phenylpropoxy]phenyl]ethanol valproic acid salt]	–	–	–	–	1.6 to 2.9	2.5 to 4.8	–	–
CNCCC(Oc1ccc(CCO)cc1)c1ccccc1 [Example 9, 2-[4-[3-(Methylamino)-1-phenylpropoxy]phenyl]ethanol (R)-lipoic acid salt]	–	–	–	–	1.6 to 2.9	2.5 to 4.8	–	–
CNCCC(Oc1ccc(CCOC(C)=O)cc1)c1ccccc1 (stereo not shown) [Example 10, 4-[3-(Methylamino)-1-phenylpropoxy]phenethyl acetate hydrochloride]	1.6 to 2.9	2.5 to 4.8	68 to 82	65 to 90	–	–	–	–
CNCCC(Oc1ccc(CCCCO)cc1)c1ccccc1 (stereo not shown) [Example 14, 4-[4-[3-(Methylamino)-1-phenylpropoxy]phenyl]butan-1-ol hydrochloride]	0.74	0.32	89	85	–	–	–	–
CNCCC(Oc1ccc(CCCO)cc1)c1ccccc1 (stereo not shown) [Example 16, 3-[4-[3-(Methylamino)-1-phenylpropoxy]phenyl]propan-1-ol hydrochloride]	0.46	2.36	78	90	–	–	–	–
CNCCC(Oc1ccc(CO)cc1)c1ccccc1 (stereo not shown) [Example 17, [4-[3-(Methylamino)-1-phenylpropoxy]phenyl]methanol hydrochloride]	0.13	0.42	97	94	–	–	–	–
CNCCC(Oc1cc(CO)cc(CO)c1)c1ccccc1 (stereo not shown) [Example 19, [5-[3-(Methylamino)-1-phenylpropoxy]-1,3-phenylene]dimethanol hydrochloride]	1.59	4.35	79	75	–	–	–	–
OCCc1ccc(OC[C@@H]2CNCC[C@H]2c2ccc(F)cc2)cc1 [Example 30, 2-[4-[[(3S,4R)-4-(4-Fluorophenyl)piperidin-3-yl]methoxy]phenyl]ethanol]	1.6 to 2.9	2.5 to 4.8	68 to 82	65 to 90	–	–	–	–
CNCCC(Oc1ccc(C(F)(F)F)cc1)c1ccccc1 (stereo not shown) [Fluoxetine, reference compound]	–	–	–	–	–	–	–	absence of cognitive improvement
CCN(CC)C(=O)C1(c2ccccc2)CC1CN (stereo not shown) [milnacipran, reference compound]	–	–	–	–	–	–	–	absence of cognitive improvement

Second part, led by results:

IC50 (uptake of norepinephrine; [2]) [µM]	IC50 (uptake of serotonin; [3]) [µM]	inhibition at 10 µM (serotonin transporter; concentration 10 μM) [%]	inhibition at 10 µM [1] [%]	SMILES	IC50 (uptake of norepinephrine; [4]) [µM]	IC50 (uptake of serotonin; [5]) [µM]	inhibition at 10 µM (serotonin transporter) [%]	cognitive improvement (mice)
1.6 to 2.9	2.5 to 4.8	68 to 82	65 to 90	O=C1CCCN1CCOc1ccc(CCO)cc1 [Example 1, 1-[2-[4-(2-Hydroxyethyl)phenoxy]ethyl]pyrrolidin-2-one]	–	–	–	–
1.6 to 2.9	2.5 to 4.8	68 to 82	65 to 90	CCCC(CCC)C(=O)N(C)CCC(Oc1ccc(CCO)cc1)c1ccccc1 (stereo not shown) [Example 11, N-[3-[4-(2-Hydroxyethyl)phenoxy]-3-phenylpropyl]-N-methyl-2-propylpentanamide]	–	–	–	–
2.8	2.6	79	80	CNCC[C@@H](Oc1ccc(CCO)cc1)c1cccs1 [Example 13, (R)-2-[4-[3-(Methylamino)-1-(thiophen-2-yl)propoxy]phenyl]ethanol]	–	–	–	–
1.6 to 2.9	2.5 to 4.8	68 to 82	65 to 90	CN(CCC(Oc1ccc(/C=C/CO)cc1)c1ccccc1)C(=O)OC(C)(C)C (stereo not shown) [Example 15, (E)-tert-Butyl [3-[4-(3-hydroxyprop-1-enyl)phenoxy]-3-phenylpropyl](methyl)carbamate]	–	–	–	–
1.6 to 2.9	2.5 to 4.8	68 to 82	65 to 90	CNCCC(Oc1cc(CCO)cc(CCO)c1)c1ccccc1 (stereo not shown) [Example 20, 2,2′-[5-[3-(Methylamino)-1-phenylpropoxy]-1,3-phenylene]diethanol]	–	–	–	–
1.6 to 2.9	2.5 to 4.8	68 to 82	65 to 90	CNCCC(Oc1cc(CCCO)cc(CCCO)c1)c1ccccc1 (stereo not shown) [Example 21, 3,3′-[5-[3-(Methylamino)-1-phenylpropoxy]-1,3-phenylene]dipropan-1-ol]	–	–	–	–
1.6 to 2.9	2.5 to 4.8	68 to 82	65 to 90	CNCCC(Oc1cc(CCCCO)cc(CCCCO)c1)c1ccccc1 (stereo not shown) [Example 22, 4,4′-[5-[3-(Methylamino)-1-phenylpropoxy]-1,3-phenylene]dibutan-1-ol]	–	–	–	–
1.6 to 2.9	2.5 to 4.8	68 to 82	65 to 90	CNCCC(Oc1ccc(CCO[C@@H]2O[C@H](CO)[C@@H](O)[C@H](O)[C@H]2O)cc1)c1ccccc1 (stereo partly drawn) [Example 23, (2R,3S,4S,5R,6R)-2-(Hydroxymethyl)-6-[4-[3-(methylamino)-1-phenylpropoxy]phenethoxy]tetrahydro-2H-pyran-3,4,5-triol]	–	–	–	–
1.6 to 2.9	2.5 to 4.8	68 to 82	65 to 90	CN(C)CCC(Oc1ccc(CCO)cc1)c1ccccc1 (stereo not shown) [Example 24, 2-[4-(3-Dimethylamino-1-phenylpropoxy)phenyl]ethanol]	–	–	–	–
1.6 to 2.9	2.5 to 4.8	68 to 82	65 to 90	CNCCC(Oc1ccc(C/C=C/CO)cc1)c1ccccc1 (stereo not shown) [Example 25, 4-[4-(3-Methylamino-1-phenylpropoxy)phenyl]but-2-en-1-ol]	–	–	–	–
1.6 to 2.9	2.5 to 4.8	68 to 82	65 to 90	CNCCC(Oc1ccc(CCCCCCO)cc1)c1ccccc1 (stereo not shown) [Example 26, 6-[4-(3-Methylamino-1-phenylpropoxy)phenyl]hexan-1-ol]	–	–	–	–
1.6 to 2.9	2.5 to 4.8	68 to 82	65 to 90	CNCCC(Oc1ccc(/C=C/CCCCO)cc1)c1ccccc1 (stereo not shown) [Example 27, 6-[4-(3-Methylamino-1-phenylpropoxy)phenyl]hex-5-en-1-ol]	–	–	–	–
1.6 to 2.9	2.5 to 4.8	68 to 82	65 to 90	CNCC[C@H](Oc1ccc(CCO)cc1)c1cccs1 [Example 28, (S)2-[4-(3-Methylamino-1-thiophen-2-ylpropoxy)phenyl]ethanol]	–	–	–	–
1.6 to 2.9	2.5 to 4.8	68 to 82	65 to 90	OCCc1ccc(OC(c2ccccc2)C2CNCCO2)cc1 (stereo not shown) [Example 29, 2-[4-(Morpholin-2-yl(phenyl)methoxy)phenyl]ethanol]	–	–	–	–
1.6 to 2.9	2.5 to 4.8	68 to 82	65 to 90	CN(C)CC(Oc1ccc(CCO)cc1)C1CCCCC1O (stereo not shown) [Example 31, 2-[2-Dimethylamino-1-[4-(2-hydroxyethyl)phenoxy]ethyl]cyclohexanol]	–	–	–	–
1.6 to 2.9	2.5 to 4.8	68 to 82	65 to 90	CN(C)CC(Oc1ccc(CCO)cc1)C1(O)CCCCC1 (stereo not shown) [Example 32, 1-[2-Dimethylamino-1-[4-(2-hydroxyethyl)phenoxy]-ethyl]-cyclohexanol]	–	–	–	–
